Marks after values point to notes of the source that are not given here.
Columns and labels:
[1] = Plate-based fluorescence (RiboGreen) assay: nucleic acid cargo content and encapsulation efficiency of LNPs; assay type: physicochemical; conditions: for EE (%) N/P:6: LNP
How it was run: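 LNPs made by microfluidic mixing of ethanolic lipids with mRNA in pH 4.0 citrate, dialyzed into PBS pH 7.4. Cargo quantified by RiboGreen fluorescence against a standard curve: Triton-lysed samples give total, TE-only samples give free cargo; encapsulation efficiency from their ratio.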

[2] = Dynamic light scattering: LNP particle size and PDI; assay type: physicochemical; conditions: for PDI N/P:6 / Size (nm) N/P:6: LNP
How it was run: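 The LNPs were made by microfluidic mixing of the lipids in ethanol with mRNA in pH 4.0 citrate, then dialyzed into PBS pH 7.4. They were diluted in PBS pH 7.4, and particle size and PDI were measured by dynamic light scattering.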

mouse organs = experiment: In vivo activity screening in mice: organ mean total flux (p/s) of luciferase activity after injection of F2 LNP pools (Table 6, FIG. 7A-7C); conditions: luciferase mRNA
How it was run: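 C57BL/6J mice given one tail-vein injection of pooled Formulation F2 LNPs carrying firefly luciferase mRNA (0.25-3 mg/kg) in PBS. At 4-6 h, s.c. D-luciferin given; organs imaged ex vivo by IVIS within 10-15 min, after saline cardiac perfusion. Mean total flux (p/s) per organ ROI.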

[3] = LNP compositions for in vivo mouse study, four formulations (F1-F4) pooled, or pools of four compounds
[4] = LNP compositions for in vivo mouse study, four formulations (F1-F4) of the lipid compound pooled, or pools of four compounds (sixteen compositions)
[5] = LNP compositions for Formulation F2 Study

CCCCC/C=C\CCOC(=O)CCCCCCC(=O)OCC(COC(=O)CCCCCCC(=O)OCC/C=C\CCCCC)(COC(=O)CCC(CCCCCC)OC(=O)NCCN1CCCC1)COC(=O)CCC(OCCCCCCCC)OCCCCCCCC (stereo not drawn) [Compound 12, O8-[2-(4,4-dioctoxybutanoyloxymethyl)-2-[[8-[(Z)-non-3-enoxy]-8-oxo-octanoyl]oxymethyl]-3-[4-(2-pyrrolidin-1-ylethylcarbamoyloxy)decanoyloxy]propyl]O1-[(Z)-non-3-enyl]octanedioate]
EE % [1, 3]: 97% | mRNA Content [1, 3]: 91 µg/mL | EE (%) N/P:6 ([1]; Formulation F1, N/P 6): 98% | EE (%) N/P:6 ([1]; Formulation F2, N/P 6): 98% | EE (%) N/P:6 ([1]; Formulation F3, N/P 6): 97% | EE (%) N/P:6 ([1]; Formulation F4, N/P 6): 98% | Particle Size (nm) [2, 4]: 83.7 nm | PDI [2, 3]: 0.119 | PDI N/P:6 ([2]; Formulation F1, N/P 6): 0.16 | Size (nm) N/P:6 ([2]; Formulation F1, N/P 6): 81 ± 9 nm | PDI N/P:6 ([2]; Formulation F2, N/P 6): 0.07 | Size (nm) N/P:6 ([2]; Formulation F2, N/P 6): 84 ± 5 nm | PDI N/P:6 ([2]; Formulation F3, N/P 6): 0.04 | Size (nm) N/P:6 ([2]; Formulation F3, N/P 6): 93 ± 1 nm | PDI N/P:6 ([2]; Formulation F4, N/P 6): 0.09 | Size (nm) N/P:6 ([2]; Formulation F4, N/P 6): 63 ± 0 nm | Organ Mean Total Flux Femur (mouse organs; Mouse 1, dose 0.3 mg/kg): 1.3 p/s (×10^6) | Organ Mean Total Flux Heart (mouse organs; Mouse 1, dose 0.3 mg/kg): 0.1 p/s (×10^6) | Organ Mean Total Flux Kidney (mouse organs; Mouse 1, dose 0.3 mg/kg): 0.2 p/s (×10^6) | Organ Mean Total Flux Liver (mouse organs; Mouse 1, dose 0.3 mg/kg): 61.8 p/s (×10^6) | Organ Mean Total Flux Lung (mouse organs; Mouse 1, dose 0.3 mg/kg): 0.7 p/s (×10^6) | Organ Mean Total Flux Muscle (mouse organs; Mouse 1, dose 0.3 mg/kg): 2.7 p/s (×10^6) | Organ Mean Total Flux Pancreas (mouse organs; Mouse 1, dose 0.3 mg/kg): 0.2 p/s (×10^6) | Organ Mean Total Flux Spleen (mouse organs; Mouse 1, dose 0.3 mg/kg): 0.7 p/s (×10^6)

CCCCC/C=C\CCOC(=O)CCCCC(=O)OCC(COC(=O)CCCCC(=O)OCC/C=C\CCCCC)(COC(=O)CCC(CCCCCC)OC(=O)NCCN1CCCC1)COC(=O)CC12CC3CC(CC(C3)C1)C2 (stereo not drawn) [Compound 14, O6-[2-[[2-(1-adamantyl)acetyl]oxymethyl]-2-[[6-[(Z)-non-3-enoxy]-6-oxo-hexanoyl]oxymethyl]-3-[4-(2-pyrrolidin-1-ylethylcarbamoyloxy)decanoyloxy]propyl]O1-[(Z)-non-3-enyl]hexanedioate]
EE % [1, 5]: 99% | EE % [1, 3]: 96% | mRNA Content [1, 3]: 93 µg/mL | EE (%) N/P:6 ([1]; Formulation F1, N/P 6): 99% | EE (%) N/P:6 ([1]; Formulation F2, N/P 6): 99% | EE (%) N/P:6 ([1]; Formulation F3, N/P 6): 99% | EE (%) N/P:6 ([1]; Formulation F4, N/P 6): 98% | PDI [2, 5]: 0.178 | Particle Size (nm) [2, 5]: 107.6 nm | Particle Size (nm) [2, 4]: 82.9 nm | PDI [2, 3]: 0.106 | PDI N/P:6 ([2]; Formulation F1, N/P 6): 0.06 | Size (nm) N/P:6 ([2]; Formulation F1, N/P 6): 78 ± 2 nm | PDI N/P:6 ([2]; Formulation F2, N/P 6): 0.07 | Size (nm) N/P:6 ([2]; Formulation F2, N/P 6): 90 ± 5 nm | PDI N/P:6 ([2]; Formulation F3, N/P 6): 0.14 | Size (nm) N/P:6 ([2]; Formulation F3, N/P 6): 83 ± 1 nm | PDI N/P:6 ([2]; Formulation F4, N/P 6): 0.09 | Size (nm) N/P:6 ([2]; Formulation F4, N/P 6): 68 ± 3 nm | Organ Mean Total Flux Femur (mouse organs; Mouse 1, dose 0.3 mg/kg): 9.3 p/s (×10^6) | Organ Mean Total Flux Heart (mouse organs; Mouse 1, dose 0.3 mg/kg): 1.8 p/s (×10^6) | Organ Mean Total Flux Kidney (mouse organs; Mouse 1, dose 0.3 mg/kg): 2.8 p/s (×10^6) | Organ Mean Total Flux Liver (mouse organs; Mouse 1, dose 0.3 mg/kg): 3910 p/s (×10^6) | Organ Mean Total Flux Lung (mouse organs; Mouse 1, dose 0.3 mg/kg): 31.9 p/s (×10^6) | Organ Mean Total Flux Muscle (mouse organs; Mouse 1, dose 0.3 mg/kg): 9.5 p/s (×10^6) | Organ Mean Total Flux Pancreas (mouse organs; Mouse 1, dose 0.3 mg/kg): 14.9 p/s (×10^6) | Organ Mean Total Flux Spleen (mouse organs; Mouse 1, dose 0.3 mg/kg): 31.5 p/s (×10^6) | Organ Mean Total Flux Femur (mouse organs; Mouse 2, dose 1.0 mg/kg): 62.6 p/s (×10^6) | Organ Mean Total Flux Heart (mouse organs; Mouse 2, dose 1.0 mg/kg): 5.9 p/s (×10^6) | Organ Mean Total Flux Kidney (mouse organs; Mouse 2, dose 1.0 mg/kg): 7.0 p/s (×10^6) | Organ Mean Total Flux Liver (mouse organs; Mouse 2, dose 1.0 mg/kg): 2883 p/s (×10^6) | Organ Mean Total Flux Lung (mouse organs; Mouse 2, dose 1.0 mg/kg): 96.9 p/s (×10^6) | Organ Mean Total Flux Muscle (mouse organs; Mouse 2, dose 1.0 mg/kg): 144.9 p/s (×10^6) | Organ Mean Total Flux Pancreas (mouse organs; Mouse 2, dose 1.0 mg/kg): 32.1 p/s (×10^6) | Organ Mean Total Flux Spleen (mouse organs; Mouse 2, dose 1.0 mg/kg): 107.0 p/s (×10^6) | Organ Mean Total Flux Femur (mouse organs; Mouse 3, dose 1.0 mg/kg): 41.8 p/s (×10^6) | Organ Mean Total Flux Heart (mouse organs; Mouse 3, dose 1.0 mg/kg): 8.6 p/s (×10^6) | Organ Mean Total Flux Kidney (mouse organs; Mouse 3, dose 1.0 mg/kg): 7.7 p/s (×10^6) | Organ Mean Total Flux Liver (mouse organs; Mouse 3, dose 1.0 mg/kg): 4307 p/s (×10^6) | Organ Mean Total Flux Lung (mouse organs; Mouse 3, dose 1.0 mg/kg): 49.2 p/s (×10^6) | Organ Mean Total Flux Muscle (mouse organs; Mouse 3, dose 1.0 mg/kg): 193.7 p/s (×10^6) | Organ Mean Total Flux Pancreas (mouse organs; Mouse 3, dose 1.0 mg/kg): 23.4 p/s (×10^6) | Organ Mean Total Flux Spleen (mouse organs; Mouse 3, dose 1.0 mg/kg): 123.8 p/s (×10^6) | Organ Mean Total Flux Femur (mouse organs; Mouse 5, dose 0.5 mg/kg): 11.9 p/s (×10^6) | Organ Mean Total Flux Heart (mouse organs; Mouse 5, dose 0.5 mg/kg): 4.4 p/s (×10^6) | Organ Mean Total Flux Kidney (mouse organs; Mouse 5, dose 0.5 mg/kg): 1.8 p/s (×10^6) | Organ Mean Total Flux Liver (mouse organs; Mouse 5, dose 0.5 mg/kg): 1303 p/s (×10^6) | Organ Mean Total Flux Lung (mouse organs; Mouse 5, dose 0.5 mg/kg): 18.9 p/s (×10^6) | Organ Mean Total Flux Muscle (mouse organs; Mouse 5, dose 0.5 mg/kg): 34.1 p/s (×10^6) | Organ Mean Total Flux Pancreas (mouse organs; Mouse 5, dose 0.5 mg/kg): 1.9 p/s (×10^6) | Organ Mean Total Flux Spleen (mouse organs; Mouse 5, dose 0.5 mg/kg): 20.8 p/s (×10^6) | Organ Mean Total Flux Femur (mouse organs; Mouse 6, dose 0.5 mg/kg): 9.1 p/s (×10^6) | Organ Mean Total Flux Heart (mouse organs; Mouse 6, dose 0.5 mg/kg): 1.6 p/s (×10^6) | Organ Mean Total Flux Kidney (mouse organs; Mouse 6, dose 0.5 mg/kg): 3.2 p/s (×10^6) | Organ Mean Total Flux Liver (mouse organs; Mouse 6, dose 0.5 mg/kg): 676.3 p/s (×10^6) | Organ Mean Total Flux Lung (mouse organs; Mouse 6, dose 0.5 mg/kg): 17.3 p/s (×10^6) | Organ Mean Total Flux Muscle (mouse organs; Mouse 6, dose 0.5 mg/kg): 27.6 p/s (×10^6) | Organ Mean Total Flux Pancreas (mouse organs; Mouse 6, dose 0.5 mg/kg): 14.7 p/s (×10^6) | Organ Mean Total Flux Spleen (mouse organs; Mouse 6, dose 0.5 mg/kg): 28.7 p/s (×10^6) | Organ Mean Total Flux Femur (mouse organs; Mouse 9, dose 0.5 mg/kg): 13.3 p/s (×10^6) | Organ Mean Total Flux Heart (mouse organs; Mouse 9, dose 0.5 mg/kg): 1.2 p/s (×10^6) | Organ Mean Total Flux Kidney (mouse organs; Mouse 9, dose 0.5 mg/kg): 2.5 p/s (×10^6) | Organ Mean Total Flux Liver (mouse organs; Mouse 9, dose 0.5 mg/kg): 721.0 p/s (×10^6) | Organ Mean Total Flux Lung (mouse organs; Mouse 9, dose 0.5 mg/kg): 10.4 p/s (×10^6) | Organ Mean Total Flux Muscle (mouse organs; Mouse 9, dose 0.5 mg/kg): 31.2 p/s (×10^6) | Organ Mean Total Flux Pancreas (mouse organs; Mouse 9, dose 0.5 mg/kg): 10.2 p/s (×10^6) | Organ Mean Total Flux Spleen (mouse organs; Mouse 9, dose 0.5 mg/kg): 32.2 p/s (×10^6) | Organ Mean Total Flux Femur (mouse organs; Mouse 11, dose 0.5 mg/kg): 10.1 p/s (×10^6) | Organ Mean Total Flux Heart (mouse organs; Mouse 11, dose 0.5 mg/kg): 1.8 p/s (×10^6) | Organ Mean Total Flux Kidney (mouse organs; Mouse 11, dose 0.5 mg/kg): 0.9 p/s (×10^6) | Organ Mean Total Flux Liver (mouse organs; Mouse 11, dose 0.5 mg/kg): 360.7 p/s (×10^6) | Organ Mean Total Flux Lung (mouse organs; Mouse 11, dose 0.5 mg/kg): 25.4 p/s (×10^6) | Organ Mean Total Flux Muscle (mouse organs; Mouse 11, dose 0.5 mg/kg): 24.2 p/s (×10^6) | Organ Mean Total Flux Pancreas (mouse organs; Mouse 11, dose 0.5 mg/kg): 4.2 p/s (×10^6) | Organ Mean Total Flux Spleen (mouse organs; Mouse 11, dose 0.5 mg/kg): 26.2 p/s (×10^6) | Organ Mean Total Flux Femur (mouse organs; Mouse 12, dose 0.5 mg/kg): 9.3 p/s (×10^6) | Organ Mean Total Flux Heart (mouse organs; Mouse 12, dose 0.5 mg/kg): 1.8 p/s (×10^6) | Organ Mean Total Flux Kidney (mouse organs; Mouse 12, dose 0.5 mg/kg): 2.2 p/s (×10^6) | Organ Mean Total Flux Liver (mouse organs; Mouse 12, dose 0.5 mg/kg): 585.3 p/s (×10^6) | Organ Mean Total Flux Lung (mouse organs; Mouse 12, dose 0.5 mg/kg): 32.4 p/s (×10^6) | Organ Mean Total Flux Muscle (mouse organs; Mouse 12, dose 0.5 mg/kg): 35.5 p/s (×10^6) | Organ Mean Total Flux Pancreas (mouse organs; Mouse 12, dose 0.5 mg/kg): 3.5 p/s (×10^6) | Organ Mean Total Flux Spleen (mouse organs; Mouse 12, dose 0.5 mg/kg): 21.1 p/s (×10^6) | Organ Mean Total Flux Femur (mouse organs; Mouse 13, dose 0.5 mg/kg): 8.3 p/s (×10^6) | Organ Mean Total Flux Heart (mouse organs; Mouse 13, dose 0.5 mg/kg): 1.1 p/s (×10^6) | Organ Mean Total Flux Kidney (mouse organs; Mouse 13, dose 0.5 mg/kg): 5.7 p/s (×10^6) | Organ Mean Total Flux Liver (mouse organs; Mouse 13, dose 0.5 mg/kg): 439.7 p/s (×10^6) | Organ Mean Total Flux Lung (mouse organs; Mouse 13, dose 0.5 mg/kg): 16.8 p/s (×10^6) | Organ Mean Total Flux Muscle (mouse organs; Mouse 13, dose 0.5 mg/kg): 16.7 p/s (×10^6) | Organ Mean Total Flux Pancreas (mouse organs; Mouse 13, dose 0.5 mg/kg): 5.3 p/s (×10^6) | Organ Mean Total Flux Spleen (mouse organs; Mouse 13, dose 0.5 mg/kg): 19.7 p/s (×10^6) | Organ Mean Total Flux Femur (mouse organs; Mouse 14, dose 0.5 mg/kg): 10.8 p/s (×10^6) | Organ Mean Total Flux Heart (mouse organs; Mouse 14, dose 0.5 mg/kg): 2.0 p/s (×10^6) | Organ Mean Total Flux Kidney (mouse organs; Mouse 14, dose 0.5 mg/kg): 4.6 p/s (×10^6) | Organ Mean Total Flux Liver (mouse organs; Mouse 14, dose 0.5 mg/kg): 240.7 p/s (×10^6) | Organ Mean Total Flux Lung (mouse organs; Mouse 14, dose 0.5 mg/kg): 12.6 p/s (×10^6) | Organ Mean Total Flux Muscle (mouse organs; Mouse 14, dose 0.5 mg/kg): 41.1 p/s (×10^6) | Organ Mean Total Flux Pancreas (mouse organs; Mouse 14, dose 0.5 mg/kg): 7.6 p/s (×10^6) | Organ Mean Total Flux Spleen (mouse organs; Mouse 14, dose 0.5 mg/kg): 24.0 p/s (×10^6)

From patent US20260234115A1, “LIPID COMPOUNDS, COMPOSITIONS, AND USES THEREOF” (Liberate Bio, Inc., priority 2023, published 2026)
